Results reported in patent US20060178389A1, “Use of siramesine in the treatment of cancer” (priority 2003, published 2006).

Tests used:
[1] = test system: N1H3T3 murine fibroblasts transduced with v-Ha-ras or c-src; experiment: Sensitivity of fibroblasts towards Siramesine after oncogenic transformation; format: cell-based; conditions: upon oncogenic transformation by ras or src
Excerpt: (§1) Murine fibrosarcoma cells WEHI-S, Wn902, Wn912, and WEHI-R4 are normal, vector control, Hsp70 overexpressing, and hTNF resistant cells, respectively. Other cell types tested include: Human breast cancer cell types MCF7-S1 and MDA-MB-468, and non-tumorigekic immortalized breast epithelial cells HBL100. MCF7 casp3.1 and −3.3 and neo2 are single cell clones expressing caspase3 and vector. MCF7 pCEP, -Bcl2 WT, -Bcl2 NT, -Bcl2 Acta, and -Bcl2 Cb5 are single cell clones expressing vector, wildtype Bcl2, cytoplasma localized Bcl2, mitochondria localized Bcl2, and ER localized Bcl2 (Maria Høyer Hansen, Apoptosis Laboratory, Danish Cancer Society). Human neuroblastoma cell line SK-N-MC cells (ATCC, USA). […]
(§2) Cell viability was measured using the MTT reduction assay. Conversion of the tetrazolium salt 3-(4,5-dimethylthiazole-2-yl)-2,5-diphenyltetrasodiumbromide (MTT, SIGMA-Aldrich) into the blue-colored formazan product was assessed spectrophotometrically by absorption at 570 nm using a Versamax microplate reader (Molecular Devices). The survival rate was determined as the percentage of untreated cells or inhibitor-treated cells: Cells were seeded into 96-well plate, containing 200 μL media, and treated the following day with drugs. The effect on cell viability was assessed 24-60 h after drug addition by removal of 100 μL media and addition of 25 μL MTT solution (1 mg/mL in PBS, sterile filtered). […]

[2] = test system: WEHI-R4 cells
Protocol: WEHI-R4 cells (5×10^6) were implanted subcutaneously in the back of immunocompetent female BALB/c mice. Siramesine treatment commenced two days prior to tumor implant. Mice were divided into groups (5-9/group) and administered peroral 200 μL 1) vehicle (0.5% methylcellulose 15 in 0.9% NaCl solution), 2) 100 mg/kg/day Siramesine in suspension (in 0.5% methylcellulose 15 in 0.9% NaCl solution) 7 days per week. For combinational in vivo studies, 50 mg/kg siramesine was administered 7 days/week in combination with a single dose of etoposide (i.p.) up to 30 mg/kg (administered on day one). Tumor volumes were estimated by the use of a caliper. The effect of the drugs on the tumor growth was monitored over 14-21 days before the mice were sacrificed.

[3] = test system: WEHI-S cells; experiment: Induction of cell death in combination with chemotherapeutics; format: cell-based, murine; conditions: together with etoposide, doxorubicin, staurosporin, vincristine and tamoxifen
Excerpt: as §1, §2

[4] = test system: WEHI-S cells; experiment: Induction of apoptosis compared with reference sigma ligands, WEHI-S; format: cell-based, murine; conditions: versus Haloperidol and pentazocine
Excerpt: as §1, §2

[5] = test system: MCF7 cells; experiment: Induction of apoptosis compared with reference sigma ligands, MCF7; format: cell-based, human; conditions: versus Haloperidol and pentazocine
Excerpt: as §1, §2

[6] = test system: Tumor cells protected by ectopic expression of Bcl-2; experiment: Killing of tumor cells with ectopic expression of Bcl-2; format: cell-based; conditions: cells protected against most other anti-cancer drugs by ectopic expression of Bcl-2
Excerpt: as §1, §2

[7] = test system: lysosomal cathepsins; experiment: Release of lysosomal cathepsins (immunostaining of cathepsin B and L, purified lysosomes, cathepsin inhibitors); format: cell-based
Excerpt: (§3) The following protease inhibitors were used: zVAD-fmk, DEVD-fmk (Bachem Bubendorf, Switzerland), DEVD-CHO (Neosystems, Strasbourg, France), LEHD-CHO, zFA-fmk (Enzyme System Products, Livermore, Calif.), CA-074-Me (Peptides International, Louisville, Ky.), APC1138 (Celera Applied Biosystems, Foster City, Calif., USA),. Pepstatin A, PD150606, and calpain inhibitor I (CI) (Calbiochem, La Jolla, Calif.), TPCK (Boehringer Mannheim), pefabloc (AEBSF) (Roche Diagnostics, DK).
To measure cytosolic cystein cathepsin enzyme activity, subconfluent cells seeded in 24-well plates were treated with an extraction buffer (250 mM sucrose, 20 mM HEPES, 10 mM KCl, 1.5 mM MgCl2, 1 mM EDTA, 1 mM EGTA, 1 mM pefablock; pH 7.5) containing 20 μg/mL digitonin for 12-15 min on ice. To measure total cellular cystein cathepsin enzyme activity, cells were treated with the above extraction buffer containing 200 μg/mL digitonin for 12-15 min on ice. […]
Cells were exposed to the lysomotropic weak base and metachromatic fluorochrome acridine orange (AO, Molecular Probes) that accumulates in acidic compartments. […] Cells were either evaluated using an inverted Olympus microscope IX-70 or detached from the substratum and analyzed by flow cytometry using a FACSort (Becton Dickinson, San Jose, Calif.) with an argon ion laser with an output wavelength of 488 nm and analyzed using CELLQuest software. […]

[8] = test system: cultured tumor cell lines originating from tumors of the prostate, breast and cervix; experiment: Induction of programmed cell death in cultured tumor cell lines (MTT / LDH release); format: cell-based, human; conditions: dose dependent, tumor cell lines of various origins incl. prostate
Excerpt: as §1, §2

[9] = test system: effector caspase; experiment: Mode of cell death: nuclear morphology, caspase inhibitors, caspase 3/7-like activity; format: cell-based
Excerpt: as §3
The cell death mode was assessed by the type of nuclear condensation and performed by hoechst staining (cell permeable Hoechst 33342, SIGMA-Aldrich) of drug-treated cells. Non cell permeable Sytox Green (Molecular Probes) was used to assay loss of membrane integrity and compared with nuclear morphological changes observed with Hoechst. Cells were incubated with 10.000× dilution of 25 mg/mL hoechst and /or 10.000× dilution of 5 mM sytox green for 5 min at 37° C. where after type of nuclear condensation and possible co-stain was analyzed using an inverted Olympus microscope IX-70.
To measure cytosolic cystein cathepsin enzyme activity, subconfluent cells seeded in 24-well plates were treated with an extraction buffer (250 mM sucrose, 20 mM HEPES, 10 mM KCl, 1.5 mM MgCl2, 1 mM EDTA, 1 mM EGTA, 1 mM pefablock; pH 7.5) containing 20 μg/mL digitonin for 12-15 min on ice. […]

[10] = test system: p53; experiment: p53 activation; format: cell-based

Fc1ccc(-n2cc(CCCCN3CCC4(CC3)OCc3ccccc34)c3ccccc32)cc1 [Siramesine, 1′-[4-[1-(4-fluorophenyl)-1H-indole-3-yl]-1-butyl]-spiro[isobenzofuran-1(3H)4′-piperidine]]
sensitivity of cells towards Siramesine [1]: increased | effect on tumor growth ([2]; BALB/c mice, siramesine alone, peroral): anti-tumorigenic effect | effect on tumor growth, combination with etoposide ([2]; BALB/c mice, siramesine and etoposide versus groups single-treated): combinational effect | tolerability in vivo ([2]; mouse, in vivo): well tolerated | interaction with chemotherapeutics in induction of cell death [3]: synergistic | potency as inducer of apoptosis versus reference sigma ligands [4]: significantly more potent inducer of apoptosis than Haloperidol and pentazocine | potency as inducer of apoptosis versus reference sigma ligands [5]: significantly more potent inducer of apoptosis than Haloperidol and pentazocine | killing of Bcl-2 expressing tumor cells [6]: effectively killed | effect of pharmacological cathepsin inhibitors on siramesine-induced death [7]: can attenuate the death | release of lysosomal cathepsins into the cytosol ([7]; immunohistochemical staining of cathepsin B and L, in vitro release from purified lysosomes): release of lysosomal cathepsins into the cytosol seems to be involved in the execution of the death process | induction of programmed cell death [8]: effectively induces programmed cell death | effector caspase activation [9]: absence of effector caspase activation | mode of death ([9]; based on nuclear morphological changes and absence of protection by pharmacological caspase inhibitors): caspase-independent | activation of p53 [10]: does not activate p53
